Assay results reported in ChEMBL document CHEMBL1201862, “PubChem BioAssay data set” (2004).
The source made the active and inactive calls.

Experiments:
Leucine aminopeptidase = biological target: T1, Leucine aminopeptidase (Plasmodium falciparum 3D7, UniProt Q8IL11); assay: P. falciparum M17LAP inhibitors, primary screen, biochemical, fluorogenic H-Leu-NHMec substrate, 1536-well (AID 1619); assay type: functional
T1 sequence (Q8IL11 whole entry): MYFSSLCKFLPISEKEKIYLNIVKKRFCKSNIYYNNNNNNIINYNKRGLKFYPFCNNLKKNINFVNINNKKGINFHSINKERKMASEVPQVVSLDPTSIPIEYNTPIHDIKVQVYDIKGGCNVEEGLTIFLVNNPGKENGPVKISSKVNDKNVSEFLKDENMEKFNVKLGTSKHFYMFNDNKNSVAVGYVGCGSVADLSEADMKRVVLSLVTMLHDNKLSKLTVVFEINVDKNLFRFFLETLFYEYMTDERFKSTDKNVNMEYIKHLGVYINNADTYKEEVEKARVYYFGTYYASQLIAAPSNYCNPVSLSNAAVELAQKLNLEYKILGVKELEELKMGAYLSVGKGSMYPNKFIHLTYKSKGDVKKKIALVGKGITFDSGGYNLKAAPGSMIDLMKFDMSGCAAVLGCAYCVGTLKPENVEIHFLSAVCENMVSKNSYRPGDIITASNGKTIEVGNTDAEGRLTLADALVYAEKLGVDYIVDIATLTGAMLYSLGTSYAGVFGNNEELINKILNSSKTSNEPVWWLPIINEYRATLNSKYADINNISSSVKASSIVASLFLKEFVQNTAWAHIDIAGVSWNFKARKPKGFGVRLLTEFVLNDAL

Genome polyprotein = Genome polyprotein (dengue virus type 2, UniProt P29990); assay: flavivirus cap methylation enzyme inhibition – biochemical, confirmation dose response, primary screen (AID 588689); assay type: functional
Protein RecA = biological target: T2, Protein RecA (Mycobacterium tuberculosis, UniProt P9WHJ3); assay: Fluorescence Cell-Free Homogeneous Dose Retest to Identify Inhibitors of RecA-Intein Splicing Activity. [Related pubchem assays (depositor defined):AID2097, AID2223, AID489010, AID492950]; assay type: functional
T2 sequence (P9WHJ3 whole entry): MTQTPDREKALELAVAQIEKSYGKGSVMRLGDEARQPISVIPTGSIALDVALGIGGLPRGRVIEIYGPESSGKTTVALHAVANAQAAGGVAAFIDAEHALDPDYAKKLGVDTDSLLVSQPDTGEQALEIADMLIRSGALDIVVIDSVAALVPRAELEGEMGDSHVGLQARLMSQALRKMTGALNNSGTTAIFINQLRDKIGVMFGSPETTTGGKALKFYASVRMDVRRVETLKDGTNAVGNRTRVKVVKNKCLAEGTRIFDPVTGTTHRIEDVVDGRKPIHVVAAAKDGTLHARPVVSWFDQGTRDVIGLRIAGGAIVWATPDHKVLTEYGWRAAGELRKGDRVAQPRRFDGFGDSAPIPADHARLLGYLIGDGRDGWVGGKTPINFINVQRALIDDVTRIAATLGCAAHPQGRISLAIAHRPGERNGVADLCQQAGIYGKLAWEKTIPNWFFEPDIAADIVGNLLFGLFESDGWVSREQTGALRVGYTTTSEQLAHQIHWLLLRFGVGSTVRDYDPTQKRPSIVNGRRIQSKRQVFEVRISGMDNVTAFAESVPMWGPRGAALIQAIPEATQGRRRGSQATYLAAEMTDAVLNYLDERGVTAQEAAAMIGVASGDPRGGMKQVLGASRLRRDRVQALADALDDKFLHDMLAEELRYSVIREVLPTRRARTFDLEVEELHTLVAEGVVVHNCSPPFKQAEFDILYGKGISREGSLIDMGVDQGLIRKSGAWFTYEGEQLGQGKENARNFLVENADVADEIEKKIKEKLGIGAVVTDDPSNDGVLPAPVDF

[1] = biological target: T3, Replicative DNA helicase DnaB (Mycobacterium tuberculosis, UniProt P9WMR3); assay: DnaB intein splicing inhibitors, dose response, biochemical, cell-free fluorescence (AID 449749); assay type: functional
T3 sequence (P9WMR3 whole entry): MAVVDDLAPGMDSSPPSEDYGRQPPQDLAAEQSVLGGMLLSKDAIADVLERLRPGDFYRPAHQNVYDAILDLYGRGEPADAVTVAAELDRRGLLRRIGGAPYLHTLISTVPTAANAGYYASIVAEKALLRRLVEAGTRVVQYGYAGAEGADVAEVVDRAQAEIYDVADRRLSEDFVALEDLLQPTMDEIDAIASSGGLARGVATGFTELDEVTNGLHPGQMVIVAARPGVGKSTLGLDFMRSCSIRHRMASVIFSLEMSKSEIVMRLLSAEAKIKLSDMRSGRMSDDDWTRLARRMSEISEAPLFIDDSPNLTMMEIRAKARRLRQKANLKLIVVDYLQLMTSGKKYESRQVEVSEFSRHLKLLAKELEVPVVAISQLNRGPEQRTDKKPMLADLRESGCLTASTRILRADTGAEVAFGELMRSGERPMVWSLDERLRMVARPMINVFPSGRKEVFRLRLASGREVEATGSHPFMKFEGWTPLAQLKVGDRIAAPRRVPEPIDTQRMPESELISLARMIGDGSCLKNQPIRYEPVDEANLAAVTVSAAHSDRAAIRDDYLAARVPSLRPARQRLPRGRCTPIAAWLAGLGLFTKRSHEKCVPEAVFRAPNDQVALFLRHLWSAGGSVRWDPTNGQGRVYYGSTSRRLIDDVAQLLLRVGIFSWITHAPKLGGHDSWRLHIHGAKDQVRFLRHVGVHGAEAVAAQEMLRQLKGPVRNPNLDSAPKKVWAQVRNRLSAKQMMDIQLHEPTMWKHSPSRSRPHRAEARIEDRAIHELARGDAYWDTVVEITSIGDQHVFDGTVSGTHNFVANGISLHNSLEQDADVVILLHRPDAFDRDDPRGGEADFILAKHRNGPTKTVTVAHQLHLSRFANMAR

Caspase-6 = biological target: T4, Caspase-6 (Homo sapiens, UniProt P55212); assay: inhibition of CASP6 peptide cleavage – biochemical, VEID-R110 fluorescence, cherry-pick, dose response (AID 720632)
T4 sequence (P55212 whole entry): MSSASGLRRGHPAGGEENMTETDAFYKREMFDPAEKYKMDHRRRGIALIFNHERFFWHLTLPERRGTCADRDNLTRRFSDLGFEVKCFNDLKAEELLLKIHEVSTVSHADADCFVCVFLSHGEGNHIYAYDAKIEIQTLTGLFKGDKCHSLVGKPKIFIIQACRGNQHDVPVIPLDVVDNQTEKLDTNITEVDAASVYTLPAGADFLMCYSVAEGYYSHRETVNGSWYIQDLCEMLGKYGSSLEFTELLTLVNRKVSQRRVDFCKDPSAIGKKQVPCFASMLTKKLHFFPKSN

[2] = OVCAR8 cell viability loss – plate reader, dry powder samples, PAX8 project, dose response (AID 743197); assay type: functional, cell-based; settings: OVCAR-8
[3] = OVCAR-3 cell viability loss – plate reader, dry powder samples, PAX8 inhibitor project, dose response (AID 743044); assay type: functional, cell-based
Paired box protein Pax-8 = Paired box protein Pax-8 (Homo sapiens, UniProt Q06710); assay: PAX8 transcriptional activity inhibition in RMG-I – RMG-I cells, luciferase, cherry-pick, dose response (AID 687027); assay type: functional, cell-based;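 further: luciferase reporter driven by Pax8 target thyroperoxidase promoter measured by SteadyGlo luminescence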
Cytochrome P450 2C9 = Cytochrome P450 2C9 (Homo sapiens, UniProt P11712)
Cytochrome P450 2C19 = Cytochrome P450 2C19 (Homo sapiens, UniProt P33261); assay: Cytochrome panel assay with activity outcomes. Panel member name: p450-cyp2c19 Compounds with AC50 equal or less than 10 uM are considered active; assay type: functional; settings: read-out: AC50
Coagulation factor XII = biological target: T5, Coagulation factor XII (Homo sapiens, UniProt P00748); assay type: functional;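 further: activated factor XIIa alpha cleaving a fluorogenic AMC peptide substrate; inhibitor potency from loss of enzyme activity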
T5 sequence (P00748 whole entry): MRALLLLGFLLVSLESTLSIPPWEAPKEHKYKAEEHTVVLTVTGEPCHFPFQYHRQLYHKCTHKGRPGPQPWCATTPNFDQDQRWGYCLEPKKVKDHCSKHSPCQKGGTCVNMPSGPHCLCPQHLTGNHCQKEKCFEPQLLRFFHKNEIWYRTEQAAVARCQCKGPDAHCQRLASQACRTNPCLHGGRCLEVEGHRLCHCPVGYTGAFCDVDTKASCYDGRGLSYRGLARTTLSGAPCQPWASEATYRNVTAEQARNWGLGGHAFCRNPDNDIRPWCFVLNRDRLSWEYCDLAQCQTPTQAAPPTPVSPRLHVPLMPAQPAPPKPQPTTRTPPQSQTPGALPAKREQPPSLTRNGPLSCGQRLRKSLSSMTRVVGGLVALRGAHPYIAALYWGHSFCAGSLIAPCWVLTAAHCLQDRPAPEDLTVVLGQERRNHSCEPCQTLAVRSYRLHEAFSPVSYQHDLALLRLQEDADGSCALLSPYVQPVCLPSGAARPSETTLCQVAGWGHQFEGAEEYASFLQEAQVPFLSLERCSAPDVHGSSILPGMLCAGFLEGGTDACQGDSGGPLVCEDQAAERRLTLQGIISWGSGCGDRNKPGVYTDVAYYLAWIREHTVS

[4] = reduction of Shn3 3'UTR-driven luciferase in osteoblasts – cell-based, Clone20 osteoblasts, firefly luciferase, cherry-picked, dose response (AID 624132); assay type: functional;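 further: firefly luciferase luminescence from reporter carrying the Shn3 3'UTR in osteoblasts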

Genome polyprotein, sequence (P29990 2492-3391 limits assumed): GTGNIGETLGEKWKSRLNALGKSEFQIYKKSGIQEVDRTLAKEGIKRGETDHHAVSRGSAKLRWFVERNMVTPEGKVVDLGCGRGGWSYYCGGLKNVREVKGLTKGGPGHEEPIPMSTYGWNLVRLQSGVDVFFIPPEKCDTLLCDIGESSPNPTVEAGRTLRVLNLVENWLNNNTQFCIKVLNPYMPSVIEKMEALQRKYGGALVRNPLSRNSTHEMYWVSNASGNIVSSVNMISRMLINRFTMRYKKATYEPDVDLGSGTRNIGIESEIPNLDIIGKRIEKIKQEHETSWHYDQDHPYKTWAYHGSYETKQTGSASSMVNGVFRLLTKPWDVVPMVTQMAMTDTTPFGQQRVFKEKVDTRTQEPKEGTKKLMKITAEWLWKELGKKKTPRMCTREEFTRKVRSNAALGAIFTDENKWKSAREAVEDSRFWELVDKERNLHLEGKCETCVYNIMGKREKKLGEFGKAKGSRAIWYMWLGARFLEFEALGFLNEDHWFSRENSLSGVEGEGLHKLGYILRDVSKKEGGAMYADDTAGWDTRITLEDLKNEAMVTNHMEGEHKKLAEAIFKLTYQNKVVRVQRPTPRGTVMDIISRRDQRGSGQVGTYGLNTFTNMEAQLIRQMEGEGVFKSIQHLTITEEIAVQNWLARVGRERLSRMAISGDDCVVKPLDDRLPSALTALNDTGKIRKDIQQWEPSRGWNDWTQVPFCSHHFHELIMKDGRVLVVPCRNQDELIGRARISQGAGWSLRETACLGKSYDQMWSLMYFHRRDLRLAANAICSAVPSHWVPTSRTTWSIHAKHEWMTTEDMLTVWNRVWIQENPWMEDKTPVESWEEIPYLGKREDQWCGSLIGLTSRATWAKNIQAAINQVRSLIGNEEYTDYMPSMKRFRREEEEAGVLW
Paired box protein Pax-8, sequence (Q06710 whole entry): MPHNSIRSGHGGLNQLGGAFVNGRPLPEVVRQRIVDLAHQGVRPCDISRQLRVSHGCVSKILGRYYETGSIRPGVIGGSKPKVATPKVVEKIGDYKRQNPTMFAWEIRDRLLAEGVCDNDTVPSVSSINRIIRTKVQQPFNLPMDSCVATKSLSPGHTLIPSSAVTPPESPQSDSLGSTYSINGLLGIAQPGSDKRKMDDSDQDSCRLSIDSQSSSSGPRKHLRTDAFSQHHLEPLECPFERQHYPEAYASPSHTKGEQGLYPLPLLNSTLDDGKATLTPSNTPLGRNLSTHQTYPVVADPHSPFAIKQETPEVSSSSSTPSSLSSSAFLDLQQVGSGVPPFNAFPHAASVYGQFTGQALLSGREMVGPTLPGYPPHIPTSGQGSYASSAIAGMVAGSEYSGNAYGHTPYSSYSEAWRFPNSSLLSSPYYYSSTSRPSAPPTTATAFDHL
Cytochrome P450 2C9, sequence (P11712 whole entry): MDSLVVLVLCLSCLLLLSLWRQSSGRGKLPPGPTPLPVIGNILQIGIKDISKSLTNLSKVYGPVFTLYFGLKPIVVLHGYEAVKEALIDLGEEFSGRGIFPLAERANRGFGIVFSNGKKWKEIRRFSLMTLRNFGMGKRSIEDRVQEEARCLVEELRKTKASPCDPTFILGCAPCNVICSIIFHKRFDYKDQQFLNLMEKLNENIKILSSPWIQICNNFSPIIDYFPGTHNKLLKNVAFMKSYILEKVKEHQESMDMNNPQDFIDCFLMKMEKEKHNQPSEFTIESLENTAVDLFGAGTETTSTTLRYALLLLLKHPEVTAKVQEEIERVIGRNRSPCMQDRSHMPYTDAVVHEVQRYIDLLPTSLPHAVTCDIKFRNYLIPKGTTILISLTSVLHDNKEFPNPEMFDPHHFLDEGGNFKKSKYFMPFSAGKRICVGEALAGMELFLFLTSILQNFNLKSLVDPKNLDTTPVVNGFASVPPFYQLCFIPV
Cytochrome P450 2C19, sequence (P33261 whole entry): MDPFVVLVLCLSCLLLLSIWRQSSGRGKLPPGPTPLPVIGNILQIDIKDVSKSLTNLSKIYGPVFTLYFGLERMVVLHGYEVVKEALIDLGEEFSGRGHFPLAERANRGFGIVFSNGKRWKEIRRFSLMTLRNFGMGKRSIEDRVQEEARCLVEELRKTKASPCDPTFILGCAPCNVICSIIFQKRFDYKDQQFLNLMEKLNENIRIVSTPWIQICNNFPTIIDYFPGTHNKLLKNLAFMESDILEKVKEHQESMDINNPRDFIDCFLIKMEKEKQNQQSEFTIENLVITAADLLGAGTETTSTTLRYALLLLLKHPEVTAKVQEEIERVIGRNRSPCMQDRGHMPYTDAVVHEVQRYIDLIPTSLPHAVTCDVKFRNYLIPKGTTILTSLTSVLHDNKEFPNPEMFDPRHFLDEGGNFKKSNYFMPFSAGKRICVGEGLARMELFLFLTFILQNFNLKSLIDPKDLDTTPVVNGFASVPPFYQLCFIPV

## C/C(CC1CC(C)(C)OC1=O)=N/Nc1nc(-c2ccccc2)cs1 (stereo unspecified)
Leucine aminopeptidase
  IC50: 52.8 µM (active)

## COc1ccc(Cl)cc1/C=C1/C(=O)ON=C1C
Genome polyprotein
  IC50: > 100 µM (active)

## CCOC(=O)CC1=NN(c2ccccc2)C(=O)/C1=C\c1ccc(OC)cc1OC
Protein RecA
  EC50: 0.104 µM (active)
[1]
  AC50: 0.805 µM (active)
Genome polyprotein
  IC50: 27.1 µM (active)

## CSc1ccc(CN2CCC(C)(Oc3cnc(Cl)c4ccccc34)C2)cc1 (stereo unspecified)
Caspase-6
  AC50: 46 µM (active)

## C[C@H]1CCCCO[C@H](CN(C)Cc2ccc(C(F)(F)F)cc2)[C@@H](C)CN([C@@H](C)CO)C(=O)c2cc(NS(=O)(=O)c3ccc(F)cc3)ccc2O1
[2]
  AC50: 43.6 µM (active)
[3]
  AC50: 44.9 µM (active)
Paired box protein Pax-8
  AC50: 9.73 µM (active)

## CCC(C)[C@H](NC(=O)Nc1ccc(Oc2ccccc2)cc1)C(=O)O (stereo partly specified)
Leucine aminopeptidase
  IC50: 21.8 µM (active)
Cytochrome P450 2C9
  AC50: 8.91 µM (inconclusive)
Cytochrome P450 2C19
  AC50: 5.62 µM (inconclusive)

## O=Cc1ccc(OCC(=O)Nc2ccccc2C(F)(F)F)cc1
Coagulation factor XII
  IC50: > 50 µM (inactive)

## c1csc(-c2nc3ccccc3[nH]2)c1
Coagulation factor XII
  IC50: > 50 µM (inactive)

## Cc1cc(C)c(C#N)c(SCC(O)CS(=O)(=O)Cc2ccccc2)n1 (stereo unspecified)
Leucine aminopeptidase
  IC50: 31.5 µM (active)

## C[C@H](CO)N1C[C@H](C)[C@H](CN(C)CC2CCCCC2)Oc2ccc(NS(=O)(=O)c3ccc(Cl)cc3)cc2CC1=O
[3]
  AC50: 58.6 µM (active)
Paired box protein Pax-8
  AC50: 7.77 µM (active)

## COc1cc(C)c(S(=O)(=O)NCc2cccs2)cc1C
Coagulation factor XII
  IC50: > 50 µM (inactive)

## COc1cccc2sc(/N=C/N(C)C)nc12
Coagulation factor XII
  IC50: > 50 µM (inactive)

## C=CCOC(=O)C1=C(C)N=C2SCCC(=O)N2C1c1cccs1 (stereo unspecified)
Coagulation factor XII
  IC50: > 50 µM (inactive)
[4]
  AC50: > 70 µM (inactive)

## CC1=NN(c2ccccc2)C(=O)C1=Cc1ccccc1
Genome polyprotein
  IC50: 59.4 µM (active)

## CCOc1ccc(NC(=O)CN2C(=O)C3CC=CCC3C2=O)cc1 (stereo unspecified)
Leucine aminopeptidase
  IC50: 3.86 µM (active)

## O=C(O)CC(=O)Nc1ccccc1C(=O)O
Coagulation factor XII
  IC50: > 50 µM (inactive)

## O=C(NC(Cc1ccc2c(c1)OCO2)C(=O)NC(Cc1ccccc1)C(=O)O)c1ccccc1 (stereo unspecified)
Leucine aminopeptidase
  IC50: 19.7 µM (active)

## CCN(CCCNc1cc2c(c(N)c1S(=O)(=O)O)C(=O)c1ccccc1C2=O)c1ccccc1
Genome polyprotein
  IC50: 31.6 µM (active)
